Like-named read-outs stand apart in the source and are kept apart here.
Columns and labels:
human PI3Kα = target: T1, human PI3Kα (Homo sapiens, UniProt P42336); test: Biochemical PI3Kalpha (KinaseGlo luminescent kinase assay); settings: biochemical, 1 μM ATP, mean of n measurements
T1 construct: made in house
Procedure: (§1) Test compounds were dissolved in DMSO (10 mM) and transferred into 1.4 mL flat bottom or V-shaped Matrix tubes carrying a unique 2D matrix chip by individual Novartis compound hubs. The numbers of these chips were distinctively linked to Novartis Pharma Numbers. The stock solutions were stored at −20° C. if not used immediately. For the test procedure the vials were defrosted and identified by a scanner whereby a working sheet was generated that guided the subsequent working steps.
(§2) Compounds were either manually diluted in DMSO for individual experiments (96 wells enabling 10 cpds at 8 (single points) concentrations) as described in or prepared as described below if tested for profiling in 384-wells. This format enabled the assay of maximally 40 individual test compounds at 8 concentrations (single points) including 4 reference compounds. The dilution protocol included the production of “pre-dilution plates”, “master plates” and “assay plates”.
(§3) 96 polypropylene well plates were used as pre-dilution plates. A total of 4 pre-dilution plates were prepared including 10 test compounds each on the plate positions A1-A10, one standard compound at A11 and one DMSO control at A12. Programs have been written to run these pipetting steps on the HamiltonSTAR robots.
(§4) Identical “assay plates” were then prepared by pipetting 50 nL each of compound dilutions of the “master plates” into 384-well “assay plates”. The compounds were mixed with 4.5 μL of assays components plus 4.5 μL enzyme corresponding to a 1:181 dilution enabling the final concentration of 10, 3.0, 1.0, 0.3, 0.1, 0.03, 0.01 and 0.003 μM, respectively. The preparation of the “master plates” was handled by the Matrix PlateMate Plus robot and replication of “assay plates” by the HummingBird robot.
(§5) Catalytically active human PI3Kα, PI3Kβ, PI3Kδ, and mTOR were cloned, expressed and purified as described (Maira S M, Stauffer F, Brueggen J, Furet P, Schnell C, Fritsch C, Brachmann S, Chène P, de Pover A, Schoemaker K, Fabbro D, Gabriel D, Simonen M, Murphy L, Finan P, Sellers W, García-Echeverría C (2008), Mol Cancer Ther. 7:1851-63 and Maira S M, Pecchi S, Brueggen J, Huh K, Schnell C, Fritsch C, Nagel T, Wiesmann M, Brachmann S, Dorsch M, Chène P, Schoemaker K, De Pover A, Menezes D, Fabbro D, Sellers W, García-Echeverría C, Voliva C F (2011), Mol. Cancer Ther. accepted).
(§6) The luminescence-based ATP detection reagent KinaseGlo was obtained from Promega, (Cat. No. V6714, Lot No. 236161) through Catalys, Wallisellen, Switzerland. (L-alpha-phosphatidylinositol (PI), Liver, Bovine) were obtained from Avanti Polar Lipid (Cat. No. 840042C, Lot#LPI-274), Phosphatidylinositol-4,5-bisphosphate (PIP(4,5)2 (Avanti, Cat. No. 840046×) or L-α-phosphatidylinositol (PI) was obtained from Avanti Polar Lipid (Cat. No. 840042C, Lot#LPI-274). L-α-Phosphatidylserine (PS) was from Avanti Polar Lipid (Cat. No. 840032C), n-OctylGlucoside Avanti Polar Lipid (Cat. No. 10634425001). Luminescence is a well established readout to determine ATP concentrations and can thus be used to follow the activity of many kinases regardless of their substrate. The Kinase Glo Luminescent Kinase Assay (Promega, Madison/Wis., USA) is a homogeneous HTS method of measuring kinase activity by quantifying the amount of ATP remaining in solution following a kinase reaction.
(§7) 50 nL of compound dilutions were dispensed onto black 384-well low volume Non Binding Styrene (NBS) plates (Costar Cat. No. NBS#3676) as described in section 8.2. L-α-phosphatidylinositol (PI), provided as 10 mg/ml solution in methanol, was transferred into a glass tube and dried under nitrogen beam. It was then resuspended in 3% OctylGlucoside by vortexing and stored at 4° C. 5 μL of a mix of PI/OG with the PI3Ka and Pi3Kb subtypes were added. Kinase reactions were started by addition of 5 μl of ATP-mix containing in a final volume 10 μL 10 mM TRIS-HCl pH 7.5, 3 mM MgCl2, 50 mM NaCl, 0.05% CHAPS, 1 mM DTT and 1 μM ATP, and occurred at room temperature.

human PI3Kβ = target: T2, human PI3Kβ (Homo sapiens, UniProt P42338); test: Biochemical PI3Kbeta (KinaseGlo luminescent kinase assay); settings: 1 μM ATP, mean of n measurements, read-out: PI3Kb/ IC50
T2 construct: made in house
T2 sequence (P42338 2-1070 limits assumed): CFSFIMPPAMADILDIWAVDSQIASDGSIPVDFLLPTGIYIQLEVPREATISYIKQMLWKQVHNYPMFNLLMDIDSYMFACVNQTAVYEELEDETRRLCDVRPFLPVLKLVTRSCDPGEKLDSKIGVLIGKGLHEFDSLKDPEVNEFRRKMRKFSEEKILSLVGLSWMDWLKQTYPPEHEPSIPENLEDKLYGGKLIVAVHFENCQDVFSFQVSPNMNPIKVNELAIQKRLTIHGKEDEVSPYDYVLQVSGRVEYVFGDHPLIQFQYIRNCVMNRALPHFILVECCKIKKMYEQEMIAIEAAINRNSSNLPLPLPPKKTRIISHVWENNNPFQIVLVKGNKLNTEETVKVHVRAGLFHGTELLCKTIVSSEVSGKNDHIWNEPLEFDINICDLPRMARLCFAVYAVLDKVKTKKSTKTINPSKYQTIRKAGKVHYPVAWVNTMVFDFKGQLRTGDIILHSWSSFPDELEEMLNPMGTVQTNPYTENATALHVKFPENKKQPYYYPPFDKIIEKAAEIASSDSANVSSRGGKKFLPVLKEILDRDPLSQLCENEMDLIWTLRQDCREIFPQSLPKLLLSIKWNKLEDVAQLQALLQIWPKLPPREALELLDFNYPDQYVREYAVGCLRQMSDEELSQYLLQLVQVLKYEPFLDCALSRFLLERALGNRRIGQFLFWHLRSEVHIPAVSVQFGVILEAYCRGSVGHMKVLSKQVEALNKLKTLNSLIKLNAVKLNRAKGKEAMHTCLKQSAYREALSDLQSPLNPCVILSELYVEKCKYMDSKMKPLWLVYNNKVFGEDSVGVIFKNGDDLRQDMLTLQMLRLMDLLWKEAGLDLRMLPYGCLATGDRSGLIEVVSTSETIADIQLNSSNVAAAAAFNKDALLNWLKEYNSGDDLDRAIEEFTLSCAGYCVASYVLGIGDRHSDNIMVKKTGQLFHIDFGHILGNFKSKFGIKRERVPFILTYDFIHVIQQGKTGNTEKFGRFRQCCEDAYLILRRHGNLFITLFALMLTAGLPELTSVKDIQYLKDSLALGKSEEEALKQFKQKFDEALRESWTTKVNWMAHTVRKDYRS
Procedure: as §1, §2, §3, §4, §5, §6, §7

mTOR = target: T3, mTOR (Mus musculus, UniProt Q9JLN9); test: Cellular assay mTOR (phospho-T389 S6K1 SureFire in TSC1-/- MEF cells); type: cell-based
T3 construct: endogenous in cells; host or cells: TSC1-/- MEF (mouse embryo fibroblasts)

[1] = TSC1-/- MEF cells, read-out: mTOR S6K(T389)_TSC1ko/ IC50

T1 sequence (P42336 with tags, fused parts or gaps limits assumed): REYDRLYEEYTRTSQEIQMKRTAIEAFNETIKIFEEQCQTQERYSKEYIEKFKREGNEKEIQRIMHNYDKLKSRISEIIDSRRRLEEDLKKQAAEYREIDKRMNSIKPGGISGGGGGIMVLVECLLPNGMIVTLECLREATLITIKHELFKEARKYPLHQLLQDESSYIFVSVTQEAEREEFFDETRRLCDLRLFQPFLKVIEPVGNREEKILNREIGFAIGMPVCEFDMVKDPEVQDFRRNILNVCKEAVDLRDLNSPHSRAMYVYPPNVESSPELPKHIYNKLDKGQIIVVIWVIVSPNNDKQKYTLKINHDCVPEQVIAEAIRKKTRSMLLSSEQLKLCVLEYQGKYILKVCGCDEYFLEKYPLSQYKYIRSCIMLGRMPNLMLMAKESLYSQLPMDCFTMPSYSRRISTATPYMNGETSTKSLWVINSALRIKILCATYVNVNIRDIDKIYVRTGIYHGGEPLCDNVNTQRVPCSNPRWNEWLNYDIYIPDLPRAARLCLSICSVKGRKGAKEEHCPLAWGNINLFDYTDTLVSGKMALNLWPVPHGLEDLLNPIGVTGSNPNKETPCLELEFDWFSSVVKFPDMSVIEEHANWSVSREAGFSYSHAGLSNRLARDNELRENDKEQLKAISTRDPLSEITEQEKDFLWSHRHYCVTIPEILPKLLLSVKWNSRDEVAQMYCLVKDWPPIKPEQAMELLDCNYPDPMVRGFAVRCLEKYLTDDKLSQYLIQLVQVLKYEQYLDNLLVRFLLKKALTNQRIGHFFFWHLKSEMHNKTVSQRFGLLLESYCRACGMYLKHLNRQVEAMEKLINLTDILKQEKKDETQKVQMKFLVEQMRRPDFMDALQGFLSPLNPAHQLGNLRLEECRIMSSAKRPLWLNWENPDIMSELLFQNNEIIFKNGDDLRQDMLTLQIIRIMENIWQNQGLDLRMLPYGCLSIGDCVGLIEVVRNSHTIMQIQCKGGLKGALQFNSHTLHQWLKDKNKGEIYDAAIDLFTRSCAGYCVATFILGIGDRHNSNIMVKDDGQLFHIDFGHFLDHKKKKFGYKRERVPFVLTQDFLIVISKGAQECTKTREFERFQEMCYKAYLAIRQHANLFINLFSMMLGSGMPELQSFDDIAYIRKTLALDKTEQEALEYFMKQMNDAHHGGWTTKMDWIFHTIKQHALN

| Structure (SMILES) | PI3Ka/ IC50 (human PI3Kα) [umol I-1] | IC50 (human PI3Kβ) [nM] | IC50 (mTOR; [1]) [nM] | IC50 (mTOR; second value / 3 of the 4 values / 3 of the 5 values as per footnote, read-out: mTOR S6K(T389)_TSC1ko IC50, further individual values (footnotes)) [nM] |
| --- | --- | --- | --- | --- |
| Nc1ncc(-c2cc(N3C[C@H](CO)OC3=O)nc(N3CCOCC3)n2)c(C(F)(F)F)n1 [Example 20, (R)-3-(2′-Amino-2-morpholin-4-yl-4′-trifluoromethyl-[4,5′]bipyrimidinyl-6-yl)-5-hydroxymethyl-oxazolidin-2-one] | 0.024 | 11 | > 2270 |  |
| C[C@H]1[C@@H](CO)OC(=O)N1c1cc(-c2cnc(N)nc2C(F)(F)F)nc(N2CCOCC2)n1 [Example 19, (4S,5S)-3-(2′-Amino-2-morpholin-4-yl-4′-trifluoromethyl-[4,5′]bipyrimidinyl-6-yl)-5-hydroxymethyl-4-methyl-oxazolidin-2-one] | 0.006 | 5 | 423 |  |
| [2H]C1([2H])OC([2H])([2H])C([2H])([2H])N(c2nc(-c3cnc(N)nc3C(F)(F)F)cc(N3C(=O)OC[C@@H]3C)n2)C1([2H])[2H] [Example 17, (S)-3-(2′-amino-2-D8-morpholino-4′-(trifluoromethyl)-[4,5′-bipyrimidin]-6-yl)-4-methyloxazolidin-2-one] | 0.017 | 7 | 867 |  |
| Nc1ncc(-c2cc(N3C(=O)O[C@H]4COC[C@H]43)nc(N3CCOCC3)n2)c(C(F)(F)F)n1 [Example 21, (3aR,6aR)-3-(2′-amino-2-morpholino-4′-(trifluoromethyl)-[4,5′-bipyrimidin]-6-yl)-tetrahydrofuro[3,4-d]oxazol-2(3H)-one] | 0.019 | 35 | 942 |  |
| C[C@H]1[C@H](CO)OC(=O)N1c1cc(-c2cnc(N)nc2C(F)(F)F)nc(N2CCOCC2)n1 [Example 15, (4S,5R)-3-(2′-Amino-2-morpholin-4-yl-4′-trifluoromethyl-[4,5′]bipyrimidinyl-6-yl)-5-hydroxymethyl-4-methyl-oxazolidin-2-one] | 0.026 | 21 | 727 | > 2270 |

Reference: patent publication US8865894B2, “Oxazolidin-2-one compounds and uses thereof” (Novartis AG, priority 2012, dated 2014)
